Laboratory results: US20190307843A1, “SINGLE DOSE METHODS FOR PREVENTING AND TREATING FUNGAL INFECTIONS” (Cidara Therapeutics, Inc., priority 2016, published 2019)
Starred links: 1 amine or outer side, 2 acyl side, 3 side chain; linkers in the order of their positions; H or OH if unused. Positions of bridges follow the written chain, without caps; N, C: chain ends. Non-standard residues stand in square brackets, D forms with d. Residues, ends and D or L forms follow the SMILES beside them. *: point of attachment. hTyr(3S-OH,4S-OH,3'-OSO3H) = N[C@H](C(=O)O)[C@H](O)[C@@H](O)c1ccc(O)c(OS(=O)(=O)O)c1; Orn(4R-OH,5R-OH) = O=C([C@H](C[C@@H](O)[C@@H](O)N[*:3])N[*:1])[*:2]; Pro(3S-OH,4S-Me) = C[C@H]1CN[C@H](C(=O)O)[C@H]1O; X1 = CCCCCOc1ccc(-c2cc(-c3ccc(C(=O)*)cc3)no2)cc1; Gln(3R-OH) = NC(=O)C[C@@H](O)[C@H](N)C(=O)O; Hyp = O=C(O)[C@@H]1C[C@@H](O)CN1

Columns and labels:
Candida albicans SC5314 = conditions: 24 hr
[1] = tested on: A. fumigatus strain AF293; assay: Murine model of pulmonary aspergillosis (Example 13), survival
[2] = tested on: A. fumigatus strain AF293; assay: Murine model of pulmonary aspergillosis (Example 13), terminal lung burden; format: in vivo, Aspergillus fumigatus
Experimental: A secondary endpoint for the study was terminal lung tissue burden. Immediately following confirmation of death, carcasses were frozen at −20° C. prior to tissue dissection and processing. The frozen carcasses were thawed at room temperature and the lungs removed and placed into pre-weighed bead-beating tubes containing 2 mL of PBS and subjected to mechanical disruption. Organ homogenates were diluted further in PBS and quantitatively cultured for A. fumigatus onto SABC and incubated at 30° C. for 24-48 hours. In addition, a 300 μL aliquot of the undiluted lung tissue homogenate was stored at −80° C. for possible optional assessment of burden by qPCR.

[3] = format: in vivo, rat; conditions: rat, in vivo
Experimental: The rats were monitored at a frequency appropriate for their clinical condition. Rat weights were recorded at least once daily to ensure animals remained within ethical limits.

C. auris = assay: Murine model of disseminated candidiasis, C. auris infection, kidney CFU and survival; format: in vivo, Candida auris
[4] = tested on: C. albicans SC-5314 biofilms; assay: Mature phase biofilms (treatment), XTT metabolic activity and CSLM; format: cell-based, Candida albicans
C. albicans strain 529L = assay: Rat model of vulvovaginal candidiasis, vaginal lavage and tissue burden; format: in vivo, Candida albicans
[5] = 20 mg/kg PO Dosed Once, lavage Day 1 post infection, pre-treatment
[6] = 20 mg/kg PO Dosed Once, lavage Day 2 post infection
[7] = 20 mg/kg PO Dosed Once, lavage Day 3 post infection
[8] = 20 mg/kg PO Dosed Once, lavage Day 5 post infection
[9] = 20 mg/kg PO Dosed Once, lavage Day 7 post infection
[10] = 20 mg/kg PO Dosed Once, lavage Day 9 post infection
[11] = 20 mg/kg PO Dosed Once, terminal vaginal tissue Day +9 post infection
[12] = 20 mg/kg PO Dosed Twice, lavage Day 1 post infection, pre-treatment
[13] = 20 mg/kg PO Dosed Twice, lavage Day 2 post infection
[14] = 20 mg/kg PO Dosed Twice, lavage Day 3 post infection
[15] = 20 mg/kg PO Dosed Twice, lavage Day 5 post infection
[16] = 20 mg/kg PO Dosed Twice, lavage Day 7 post infection
[17] = 20 mg/kg PO Dosed Twice, lavage Day 9 post infection
[18] = 20 mg/kg PO Dosed Twice, terminal vaginal tissue Day +9 post infection

CCCCCOc1ccc(-c2cc(-c3ccc(C(=O)N[C@H]4C[C@@H](O)[C@@H](O)NC(=O)[C@@H]5[C@@H](O)[C@@H](C)CN5C(=O)[C@H]([C@H](O)CC(N)=O)NC(=O)[C@H]([C@H](O)[C@@H](O)c5ccc(O)c(OS(=O)(=O)O)c5)NC(=O)[C@@H]5C[C@@H](O)CN5C(=O)[C@H]([C@@H](C)O)NC4=O)cc3)no2)cc1 [Micafungin, micafungin] (X1-[Orn(4R-OH,5R-OH)]T[Hyp][hTyr(3S-OH,4S-OH,3'-OSO3H)][Gln(3R-OH)][Pro(3S-OH,4S-Me)]; lactam 1-C)
CFU clearance (Candida albicans SC5314; micafungin IP 10 mg/kg): complete clearance was only observed with the 10 mg/kg dose | CFU reduction (Candida albicans SC5314; micafungin IP 1, 3, 10 mg/kg): good dose response in CFU reduction | Mean Survival ([1]; Micafungin 2 mg/kg IP Day 0): 75.3 h | Median Survival ([1]; Micafungin 2 mg/kg IP Day 0): 73.3 h | Mean Survival ([1]; Micafungin 2 mg/kg IP Day −1): 64.7 h | Median Survival ([1]; Micafungin 2 mg/kg IP Day −1): 64.7 h | Group Geometric mean (lung burden) ([2]; Micafungin 2 mg/kg IP Day 0): 1.08 × 10^4 CFU/g | Log10 Group Geometric mean (lung burden) ([2]; Micafungin 2 mg/kg IP Day 0): 4.03 CFU/g | Log10 reduction from vehicle control ([2]; Micafungin 2 mg/kg IP Day 0): −0.26 CFU/g | Group Geometric mean (lung burden) ([2]; Micafungin 2 mg/kg IP Day −1): 4.34 x 10^4 CFU/g | Log10 Group Geometric mean (lung burden) ([2]; Micafungin 2 mg/kg IP Day −1): 4.64 CFU/g | Log10 reduction from vehicle control ([2]; Micafungin 2 mg/kg IP Day −1): −0.86 CFU/g

OC(Cn1cncn1)(Cn1cncn1)c1ccc(F)cc1F [fluconazole]
tolerability [3]: well tolerated with no adverse events observed | percent survival at the end of the study (C. auris): 0% | thickness of biofilms ([4]; fluconazole): no effect | effect on mature biofilms ([4]; fluconazole 1 and 4 μg/ml, 24 h): did not affect Candida biofilms | Group Geometric mean (C. albicans strain 529L; [5]): 3.16 × 10^3 CFU/mL | Log Group Geometric mean (C. albicans strain 529L; [5]): 3.50 CFU/mL | Log reduction from vehicle control (C. albicans strain 529L; [5]): −1.06 CFU/mL | Group Geometric mean (C. albicans strain 529L; [6]): 1.50 × 10^2 CFU/mL | Log Group Geometric mean (C. albicans strain 529L; [6]): 2.18 CFU/mL | Log reduction from vehicle control (C. albicans strain 529L; [6]): 1.52 CFU/mL | Group Geometric mean (C. albicans strain 529L; [7]): 1.00 CFU/mL | Log Group Geometric mean (C. albicans strain 529L; [7]): 0.00 CFU/mL | Log reduction from vehicle control (C. albicans strain 529L; [7]): 3.57 CFU/mL | Group Geometric mean (C. albicans strain 529L; [8]): 1.00 CFU/mL | Log Group Geometric mean (C. albicans strain 529L; [8]): 0.00 CFU/mL | Log reduction from vehicle control (C. albicans strain 529L; [8]): 4.22 CFU/mL | Group Geometric mean (C. albicans strain 529L; [9]): 1.00 CFU/mL | Log Group Geometric mean (C. albicans strain 529L; [9]): 0.00 CFU/mL | Log reduction from vehicle control (C. albicans strain 529L; [9]): 4.18 CFU/mL | Group Geometric mean (C. albicans strain 529L; [10]): 1.00 CFU/mL | Log Group Geometric mean (C. albicans strain 529L; [10]): 0.00 CFU/mL | Log reduction from vehicle control (C. albicans strain 529L; [10]): 4.30 CFU/mL | Group Geometric mean (C. albicans strain 529L; [11]): 1.00 CFU/g | Log Group Geometric mean (C. albicans strain 529L; [11]): 0.00 CFU/g | Log reduction from vehicle control (C. albicans strain 529L; [11]): 5.49 CFU/g | Group Geometric mean (C. albicans strain 529L; [12]): 1.04 × 10^3 CFU/mL | Log Group Geometric mean (C. albicans strain 529L; [12]): 3.02 CFU/mL | Log reduction from vehicle control (C. albicans strain 529L; [12]): −0.58 CFU/mL | Group Geometric mean (C. albicans strain 529L; [13]): 1.27 × 10^2 CFU/mL | Log Group Geometric mean (C. albicans strain 529L; [13]): 2.10 CFU/mL | Log reduction from vehicle control (C. albicans strain 529L; [13]): 1.59 CFU/mL | Group Geometric mean (C. albicans strain 529L; [14]): 1.49 CFU/mL | Log Group Geometric mean (C. albicans strain 529L; [14]): 0.17 CFU/mL | Log reduction from vehicle control (C. albicans strain 529L; [14]): 3.40 CFU/mL | Group Geometric mean (C. albicans strain 529L; [15]): 1.00 CFU/mL | Log Group Geometric mean (C. albicans strain 529L; [15]): 0.00 CFU/mL | Log reduction from vehicle control (C. albicans strain 529L; [15]): 4.22 CFU/mL | Group Geometric mean (C. albicans strain 529L; [16]): 1.00 CFU/mL | Log Group Geometric mean (C. albicans strain 529L; [16]): 0.00 CFU/mL | Log reduction from vehicle control (C. albicans strain 529L; [16]): 4.18 CFU/mL | Group Geometric mean (C. albicans strain 529L; [17]): 1.00 CFU/mL | Log Group Geometric mean (C. albicans strain 529L; [17]): 0.00 CFU/mL | Log reduction from vehicle control (C. albicans strain 529L; [17]): 4.30 CFU/mL | Group Geometric mean (C. albicans strain 529L; [18]): 1.00 CFU/g | Log Group Geometric mean (C. albicans strain 529L; [18]): 0.00 CFU/g | Log reduction from vehicle control (C. albicans strain 529L; [18]): 5.49 CFU/g | rats having burden below the limit of detection (C. albicans strain 529L; fluconazole 20 mg/kg PO once or twice, lavage Day 3 post infection): 11/12 | reduction in burden (C. albicans strain 529L; fluconazole 20 mg/kg PO, lavage Day 2 post infection): about 1.6 Log10 CFU/mL | lavage burden (C. albicans strain 529L; fluconazole once or twice, all rats, Day 5 post infection): below the limit of detection | terminal vaginal tissue burden (C. albicans strain 529L; fluconazole once or twice, all rats, Day 9): below the limit of detection
